Experimental data published in ChEMBL document CHEMBL6109123, “Structure of Mycobacterial NDH-2 Bound to a 2-Mercapto-Quinazolinone Inhibitor” (J Med Chem, 2025).
Calls of active or inactive are those of the source. No cut-off for these calls is given here.

Legend:
[1] = test system: Mycolicibacterium smegmatis; assay: Inhibition of Mycobacterium smegmatis GMC_MDM2 NDH2 in inverted membrane vesicle assessed as inhibition of ATP-driven vesicle acidification by fluorescence based analysis; assay type: cell membranes
[2] = test system: Mycolicibacterium smegmatis; assay: Inhibition of Mycobacterium smegmatis GMC_MDM2 NDH2 in inverted membrane vesicle assessed as inhibition of ATP-driven vesicle acidification at >10 uM by fluorescence based analysis; assay type: cell membranes
[3] = Inhibition of recombinant Mycobacterium smegmatis NDH2 catalytic activity in presence of NADH incubated for 1 min by UV-spectrometric analysis; design: species or system Mycolicibacterium smegmatis
[4] = test system: Mycolicibacterium smegmatis; assay: Inhibition of Mycobacterium smegmatis NDH2 in inverted membrane vesicle assessed as inhibition of succinate-driven vesicle acidification at >10 uM by fluorescence based analysis; assay type: cell membranes
[5] = test system: Mycolicibacterium smegmatis; assay: Inhibition of Mycobacterium smegmatis NDH2 in inverted membrane vesicle assessed as inhibition of […] vesicle acidification by fluorescence based analysis; assay type: cell membranes
[6] = test system: Mycolicibacterium smegmatis; assay: Inhibition of Mycobacterium smegmatis NDH2 in inverted membrane vesicle assessed as inhibition of succinate-driven vesicle acidification by fluorescence based analysis; assay type: cell membranes
[7] = test system: Mycolicibacterium smegmatis; assay: Inhibition of Mycobacterium smegmatis NDH2 in inverted membrane vesicle assessed as inhibition of […] vesicle acidification at up to 120 uM by fluorescence based analysis; assay type: cell membranes

Q: Which inhibition [1] does the source give for `O=C(CSc1nc2ccccc2c(=O)[nH]1)NC1CCCCC1` here?
A: Active

Q: And the inhibition [2]?
A: Active; Compound Showed Partial Inhibition Of Atp Driven Acidification

Q: And the IC50 [3]?
A: 23 nM

Q: And the inhibition [4]?
A: Active; Compound Showed Partial Inhibition Of Succinate Driven Acidification

Q: For `Nc1nc(Nc2ccc3nc(-c4ccc(F)cc4)cc(N)c3c2)cc(-c2ccc(C(F)(F)F)cc2)n1`, which inhibition [5] is on record?
A: Active

Q: And the inhibition [1]?
A: Active

Q: And the inhibition [6]?
A: Active

Q: Which inhibition [5] does the source give for `Nc1nc(Nc2ccc3nc(-c4ccc(F)cc4)cc(N)c3c2)cc(-c2ccc(Cl)cc2)n1` here?
A: Active

Q: What about the inhibition [1] of the same molecule?
A: Active

Q: What about the inhibition [6] of the same molecule?
A: Active

Q: Which inhibition [7] does the source give for `C=C(C)[C@H]1Cc2c(ccc3c2O[C@@H]2COc4cc(OC)c(OC)cc4[C@@H]2C3=O)O1` here?
A: inactive
